Where a SMILES comes first, the peptide text is derived from it. Bridges are numbered along the chain shown (N, C = ends).
Assays:
[1] = target: Neuronal acetylcholine receptor subunit alpha-7 (Homo sapiens, UniProt P36544); experiment: Antagonist activity at human alpha7 nAChR expressed in Xenopus oocyte; assay type: functional
Homo sapiens = species: Homo sapiens; experiment: Selectivity ratio of IC50 for nAChR to IC50 for human alpha7 nAChR
[2] = target: Neuronal acetylcholine receptor subunit alpha-7 (Mus musculus, UniProt P49582); experiment: Displacement of [125I]alpha-Bungarotoxin from alpha7 nAchR in mouse hippocampal membranes; assay type: cell membranes, Hippocampus
Sequence of Neuronal acetylcholine receptor subunit alpha-7 (Mus musculus, UniProt P49582) (P49582 whole entry): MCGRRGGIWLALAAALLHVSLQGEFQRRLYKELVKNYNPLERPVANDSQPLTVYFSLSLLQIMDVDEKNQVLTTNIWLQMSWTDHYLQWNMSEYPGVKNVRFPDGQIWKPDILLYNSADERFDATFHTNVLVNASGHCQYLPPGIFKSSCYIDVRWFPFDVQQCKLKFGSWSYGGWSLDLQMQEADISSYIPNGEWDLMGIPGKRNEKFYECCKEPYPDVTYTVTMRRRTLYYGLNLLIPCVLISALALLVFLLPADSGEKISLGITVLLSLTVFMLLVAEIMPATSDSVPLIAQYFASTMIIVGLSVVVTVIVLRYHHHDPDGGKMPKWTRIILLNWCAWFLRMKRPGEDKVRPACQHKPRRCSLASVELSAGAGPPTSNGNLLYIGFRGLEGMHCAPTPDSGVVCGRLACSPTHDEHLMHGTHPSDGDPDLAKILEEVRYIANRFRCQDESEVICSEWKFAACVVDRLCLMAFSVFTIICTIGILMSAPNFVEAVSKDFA

Sequence of Neuronal acetylcholine receptor subunit alpha-7 (Homo sapiens, UniProt P36544) (P36544 whole entry): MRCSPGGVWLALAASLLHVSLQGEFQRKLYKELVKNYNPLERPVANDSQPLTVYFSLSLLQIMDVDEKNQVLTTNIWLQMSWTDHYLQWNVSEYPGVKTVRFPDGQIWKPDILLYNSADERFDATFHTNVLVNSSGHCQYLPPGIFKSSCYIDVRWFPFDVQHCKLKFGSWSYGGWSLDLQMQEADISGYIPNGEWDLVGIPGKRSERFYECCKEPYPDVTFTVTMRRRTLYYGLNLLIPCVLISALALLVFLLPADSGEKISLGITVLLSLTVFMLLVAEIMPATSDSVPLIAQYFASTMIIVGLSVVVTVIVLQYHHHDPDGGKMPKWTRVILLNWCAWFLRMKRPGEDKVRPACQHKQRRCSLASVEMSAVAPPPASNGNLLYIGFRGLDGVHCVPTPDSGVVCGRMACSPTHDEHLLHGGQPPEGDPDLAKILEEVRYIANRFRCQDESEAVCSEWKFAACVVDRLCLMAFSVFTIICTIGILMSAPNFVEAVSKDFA

## CC(C)C[C@@H]1NC(=O)[C@H](CCCNC(=N)N)NC(=O)[C@@H]2CSSC[C@H](NC(=O)[C@H](CCC(=O)O)NC(=O)[C@@H](N)CC(=O)O)C(=O)N[C@@H](CSSC[C@@H](C(=O)N[C@@H](CCCNC(=N)N)C(=O)N[C@@H](CCCNC(=N)N)C(=O)N[C@@H](CCCNC(=N)N)C(=O)O)NC(=O)[C@H](CC(=O)O)NC(=O)[C@H](Cc3cnc[nH]3)NC(=O)[C@@H]3CCCN3C(=O)[C@H](CC(N)=O)NC(=O)[C@H](CC(N)=O)NC1=O)C(=O)N[C@@H](CO)C(=O)N[C@@H](CC(N)=O)C(=O)N1CCC[C@H]1C(=O)N[C@@H](C)C(=O)N2 (H-DECCSNPACRLNNPHDCRRR-OH; disulfide 3-9, 4-17)
[1]
  IC50: 1.09 nM
Homo sapiens
  Ratio IC50: > 800
[2]
  Ki: 7.04 nM

From ChEMBL document CHEMBL2151039, “Discovery and development of α7 nicotinic acetylcholine receptor modulators” (J Med Chem, 2011)
